We go through 9 compounds from patent US20060106102A1, “Napththalene derivatives which inhibit the cytokine or biological activity of microphage migration inhibitory factor (mif)” (priority 2002, published 2006).

Where two headings read alike, the source gives them in different places.

Assay [1] deals with recombinant human macrophage migration inhibitory factor (MIF)-induced proliferation of S112 human dermal fibroblasts. Nature of the assay: MIF-induced proliferation of S112 human dermal fibroblasts, 3H-thymidine incorporation. Format: cell-based. As for the experimental part: The activity of each compound was studied in a bioassay utilising MIF-induced proliferation of human dermal fibroblasts. S112 human dermal fibroblasts were propagated in RPMI/10% foetal calf serum (FCS). Prior to experimentation, cells were seeded at 10^5 cells/ml in RPMI/0.1% BSA for 18 hours. At time point zero, culture medium was replaced with RPMI/10% FCS and treatments administered. Cells were treated with recombinant human macrophage migration inhibitory factor (MIF) 50 ng/ml (1.353×10^−9 M) and/or the compound at a 1 or 1000 molar ratio to the concentration of MIF. In some experiments the compound was combined with MIF at time point −30 minutes, prior to adding at time point zero. At time point 30 hours, cells were pulsed with […]. At time point 48 hours, cells were harvested using a semi-automated cell harvester. The radioactivity incorporated into DNA was determined by liquid scintillation counting, with results expressed as [^3H] thymidine incorporation. The proliferation of untreated cells was expressed as 100% and the effect of MIF and each compound expressed in relative %.
The activity of compound 5 was studied in a bioassay utilising MIF-induced proliferation of human dermal fibroblasts. S112 human dermal fibroblasts were propagated in RPMI/10% foetal calf serum (FCS). Prior to experimentation, cells were seeded at 10^5 cells/ml in RPMII/0.1% BSA for 18 hours. At time point zero, culture medium was replaced with RPMI/10% FCS and treatments administered. Cells were treated with recombinant human macrophage migration inhibitory factor (MIF) 50 ng/ml and/or compound 5 at a 1-1000 molar ratio to the concentration of MIF. At a time point 30 hours later, cells were pulsed with 1 μCi/well of ^3H-thymidine. At a time point 48 hours after commencement of the experiment, cells were harvested using a semi-automated cell harvester. The radioactivity incorporated into DNA was determined by liquid scintillation counting, with results expressed as [^3H] thymidine incorporation.

Assay [2] deals with murine endotoxic shock model (LPS). The assay is described as follows: murine endotoxic shock model, serum cytokines by ELISA. The class given is in vivo. Conditions: mice. The protocol: The activity of 6,7-dihydroxynaphthalene-3-sulfonic acid (compound 6) was studied in the murine endotoxic shock model. This model has been previously shown to be dependent on MIF (35). […] Endotoxaemia was induced by intra-peritoneal injection of lipopolysaccharide (LPS) (15 mg/kg) in 400 μl saline. Mice were treated with a saline solution (control) only, a saline solution and LPS, or LPS and 6,7-dihydroxynaphthalene-2-sulfonic acid (compound 6) at a dose of 15 mg/kg body weight by intra-peritoneal injection at 24 hours, 12 hours and 1 hour before intra-peritoneal LPS injection. After 1.5 or 6 hours mice were humanely killed by CO2 inhalation then neck dislocation. Serum was obtained from blood obtained by cardiac puncture prior to death and measured for cytokines including interleukin 1 (IL-1) and interleukin 6 (IL-6) by ELISA. The production of IL-1 and IL-6 has been previously shown to be dependent on MIF (36).
The effect of compounds was further tested under a variety of conditions in animals exposed to endotoxic shock induced as above by the injection of 15 mg/kg LPS by intraperitoneal injection. In each case, compounds were administered by intraperitoneal injection at a dose of 15 mg/kg. Compound administration was associated with reductions in serum cytokine concentration under a variety of administration regimens.
On the technique in general: An ELISA detects its analyte on a solid surface through an enzyme-linked reagent.

Assay [3] has as its system IL-1-induced COX-2 expression. The assay is described as follows: IL-1-induced COX-2 expression in S112 human dermal fibroblasts (MIF-dependent event), flow cytometry. Format: cell-based. Conditions: Homo sapiens, Fibroblast, IL-1 0.1 ng/ml, 6 hours, S112 cells, read-out: % inhibition of IL-1-induced COX2 expression (Effect); for inhibition at 1 µM: compound 1 uM; for inhibition at 50 µM: compound 50 uM. As for the experimental part: The activity of each compound was studied in a bioassay utilising MIF-dependent activation of human dermal fibroblasts. […] IL-1-induced COX-2 expression is therefore a MIF-dependent event. […] Prior to experimentation, cells were seeded at 10^5 cells/ml in RPMI/0.1% BSA for 18 hours. […] Cells permeabilised with 0.1% saponin were sequentially labelled with a mouse anti-human COX-2 monoclonal antibody and with sheep-anti-mouse F(ab)2 fragment labelled with fluoroscein isothiocyanate. Cellular fluorescence was determined using a flow cytometer. At least 5000 events were counted for each reading, each of which was performed in duplicate, and the results expressed in mean fluorescence intensity (MFI) after subtraction of negative control-labelled cell fluorescence. The effect of each compound was determined by subtracting the IL-1+compound-treated cell MFI from the IL-1-treated cell MFI and expressed as % inhibition. In each case the % inhibition of IL-1-induced COX2 expression is shown as the mean, or mean±SEM where results are available from multiple experiments.

The subject of assay [4] is antigen-specific T cell activation (splenic T lymphocytes from mBSA-immunised mice). The assay is described as follows: antigen-specific (mBSA) activation of splenic T lymphocytes in vitro, 3H-thymidine incorporation. The class given is cell-based, C57BL6/J mice. The settings on record: for EC50: read-out: EC50 (T cell activation suppressed by 50% compared to vehicle-only-treated cells). The protocol:
After a further seven (7) days mice were killed and spleens collected aseptically into Hanks buffered saline solution (HBSS). A single cell suspension was prepared in Petri dishes by flushing DMEM through the organ using a 26G needle and 2 mL syringe. The resulting cell suspension was centrifuged for 5-7 minutes and supernatant discarded. Erythrocytes were lysed using a solution containing 0.579% NH4Cl, 0.000037% EDTA, and 0.1% NaHCO3 in a 37° C. water bath. Tubes were then filled with DMEM and centrifuged for 5-7 minutes. […] The specific stimulating antigen, mBSA, was then added at 10-50 μg/mL and plates incubated for 30 hours in a 37° C., 5% CO2 incubator. Tritiated^3H-thymidine was then added at a concentration of 0.5 μCi/well for a further 18 hours. Cells were harvested on a Packard cell harvester, and the harvested material added to 750 μL/tube scintillation fluid. Scintillation counts were read on a Wallac beta-emnission counter. […] Further compounds were also tested for their ability to inhibit antigen-specific T cell activation as a marker of the inhibition of the cytokine or biological activity of MIF using this assay.
(In general: Uptake of a labelled nucleoside into DNA is a usual measure of proliferation.)

Assay [5] has as its system murine antigen-induced arthritis. The assay is described as follows: murine antigen-induced arthritis, histological score. Format: in vivo, C57BL6/J mice. The settings on record: 15 mg/kg i.p. once per 24 hours; histology at day 28; mice. The protocol: Antigen-induced arthritis was induced in mice. C57BL6/J male mice, aged 7-10 weeks old, were immunized on day 0 with 200 μg methylated BSA (mBSA) emulsified in 200 μl of Freund's complete adjuvant (FCA) injected subcutaneously into the flank skin. Mice were treated with compound 5, administered by intraperitoneal injection, once per 24 hours at a dose of 15 mg/kg body weight. After seven days, mice received 100 μg “mBSA and 100 μl FCA by intradermal injection at the base of the tail. After a further 14 days, arthritis was induced by intra-articular injection of 30 μg mBSA in 10 μl of sterile saline into the left knee, the right knee being injected with sterile saline alone.
Arthritis was analysed histologically at day 28 after first immunisation. Knee joints were dissected and fixed in 10% buffered formalin for 7 days. Fixed tissues were decalcified for 3 weeks in 15% ethylene-diamine-tetra-acetic acid (EDTA), dehydrated and embedded in paraffin. Sagittal sections (5 μm) of the knee joint were stained with Safranin-O and counterstained with fast green /iron hematoxylin. Histological sections were scored from 0 to 3 for four parameters: Synovitis was defined as hyper-cellularity of the synovium including pannus formation. Joint space exudate was identified as leukocytes, discretely or in aggregates, in the joint space. […]

The mark [6] stands for this setting: Mus musculus, T-cell, mBSA 10 μg/ml.
[7] abbreviates: Mus musculus, T-cell, mBSA 50 μg/ml.

In the case of `O=S(=O)(O)c1ccc2cc(O)ccc2c1` [Compound 24, 6-Hydroxy-2-naphthalene-sulfonic acid], the inhibition at 0.013 µM in assay [1] (Homo sapiens, Fibroblast, concentration 0.013 μM, rhMIF 50 ng/ml, S112 cells, read-out: % inhibition of proliferation compared to vehicle plus rhMIF-treated cells) amounted to 18%. Moreover, the “Serum IL-6, LPS plus compound” value in assay [2] (compound 15 mg/kg i.p. at −24 h, −1 h before LPS 15 mg/kg i.p.) was determined as 144 ± 18 ng/mL. For the same compound, the inhibition at 1 µM in assay [3] was determined as 8.2%.
In general, EC50 refers to the concentration that produces a half-maximal response. `COc1ccc2cc([C@H](C)C(=O)O)ccc2c1` [Compound 8, S-(+)-6-methoxy-α-methyl-2-naphthalene acetic acid]: the 50% effective concentration (EC50) is 57.7 µM in assay [4] (mBSA 10 μg/ml) and greater than 100 µM in assay [4] (mBSA 50 μg/ml). Moreover, the “% inhibition of proliferation compared to vehicle plus rhMIF-treated cells” value came out at 4% in assay [1] (concentration 0.013 μM, rhMIF 50 ng/ml, S112 cells) and 36% in assay [1] (concentration 0.13 μM, rhMIF 50 ng/ml, S112 cells).
As to `O=C(O)c1ccc2c([N+](=O)[O-])c(O)ccc2c1` [Compound 23, 6-hydroxy-5-nitro-2-napthoic acid], in assay [5], the “individual parameters of arthritis (synovitis, joint space exudate, cartilage degradation, bone damage; FIG. 11b)” value is given as “Clinically significant reductions in the severity of all individual parameters of arthritis” and the “total arthritis score (FIG. 11a)” value is “clinically significant reduction in total arthritis score”. Moreover, the EC50 in assay [4] (setting [6]) was greater than 100 µM. Moreover, in assay [4] (setting [7]), the concentration giving a half-maximal response (EC50) is greater than 100 µM. Further, in assay [4] (increasing concentrations, mBSA 50 μg/mL), the “effect on antigen-specific T cell activation (FIG. 10)” value was “dose-dependent and statistically significant inhibitory effect”. The “serum IL-1, LPS plus compound” value in assay [2] (compound 15 mg/kg i.p. at −16 h before LPS 15 mg/kg i.p.) came out at 58 ± 13 ng/mL. For the same compound, the inhibition at 10 µM in assay [3] (compound 10 uM) was 8%.
Regarding `O=C(O)c1ccc2cc3c(cc2c1)OCCO3` [Compound 14, 2,3-dihydronaphtho[2,3-b][1,4]dioxine-7-carboxylic acid], the results for the EC50 in assay [4] (setting [6]) and in assay [4] (setting [7]) were 10.2 µM and 0.12 µM, respectively. Besides, the inhibition at 50 µM in assay [3] was found to be 24.1%.
`COC(=O)c1ccc2cc(O)ccc2c1` [Compound 15, Methlyl-6-hydroxy-2-naphthoate]: the figures for the half-maximal effective concentration (EC50) in assay [4] (setting [6]) and in assay [4] (setting [7]) were 51.7 µM and 21.5 µM, respectively. The inhibition at 1 µM in assay [3] was determined as 17.3%.
Take `O=C(O)CCCCCOC(=O)c1ccc2cc(O)ccc2c1` [Compound 22]: the concentration for a half-maximal effect (EC50) was 3.5 µM in assay [4] (setting [6]) and greater than 100 µM in assay [4] (setting [7]). The inhibition at 50 µM in assay [3] came out at 11.6%.
Consider `O=C(O)c1ccc2cc(O)ccc2c1` [Compound 9, 6-hydroxy-2-naphthanoic acid], for which the results for the concentration for a half-maximal effect (EC50) in assay [4] (setting [6]) and in assay [4] (setting [7]) were 72.2 µM and 87.7 µM, respectively. Besides, the inhibition at 1 µM in assay [3] came out at 7.5%.
As to `O=C(O)c1ccc2c(S(=O)(=O)O)c(O)ccc2c1` [Compound 5, 2-carboxy-6-hydroxynaphthalene-5-sulfonic acid], the EC50 in assay [4] (setting [6]) is 2.39 µM; in assay [4] (setting [7]), greater than 100 µM. In assay [1] (1M ratio equivalent to MIF 50 ng/ml), the “effect on MIF-induced proliferation of human dermal fibroblasts (FIGS. 1 and 2)” value was “inhibition of MIF-induced proliferation”.
As for `Oc1cc2ccccc2cc1O` [Compound 1, 6,7-dihydroxynaphthalene], the inhibition at 0.13 µM in assay [1] (Homo sapiens, Fibroblast, concentration 0.13 μM, rhMIF 50 ng/ml, S112 cells, read-out: % inhibition of proliferation compared to vehicle plus rhMIF-treated cells) was found to be 47%.
